Test results published in ChEMBL document CHEMBL3045331, “A clubbed quinazolinone and 4-thiazolidinone as potential antimicrobial agents” (2012).
≈ marks a conversion by molar mass, not a printed value.

system: Streptococcus pyogenes; assay: Antibacterial activity against Streptococcus pyogenes MTCC-442 after 24 hr by serial broth dilution method; assay type: functional; conditions: MTCC-442, 24 h

| SMILES | MIC99 |
| --- | --- |
| Cc1ccc(-c2nc3ccccc3c(=O)n2-c2ccc(C(=O)NN3C(=O)/C(=C/c4cc(Br)ccc4O)SC3c3ccc(O)cc3)cc2)cc1 (stereo unspecified) | 100 µg/mL (≈ 137 µM) |
| Cc1ccc(-c2nc3ccccc3c(=O)n2-c2ccc(C(=O)NN3C(=O)/C(=C/c4c(Cl)cccc4Cl)SC3c3ccc(O)cc3)cc2)cc1 (stereo unspecified) | 100 µg/mL (≈ 142 µM) |
| Cc1ccc(-c2nc3ccccc3c(=O)n2-c2ccc(C(=O)NN3C(=O)/C(=C/c4ccc(Cl)cc4)SC3c3ccc(O)cc3)cc2)cc1 (stereo unspecified) | 500 µg/mL (≈ 745 µM) |
| Cc1ccc(-c2nc3ccccc3c(=O)n2-c2ccc(C(=O)NN3C(=O)/C(=C/c4ccc5ccccc5c4O)SC3c3ccc(O)cc3)cc2)cc1 (stereo unspecified) | 100 µg/mL (≈ 142 µM) |
| Cc1ccc(-c2nc3ccccc3c(=O)n2-c2ccc(C(=O)NN3C(=O)/C(=C/c4ccc(F)cc4)SC3c3ccc(O)cc3)cc2)cc1 (stereo unspecified) | 250 µg/mL (≈ 382 µM) |
| Cc1ccc(-c2nc3ccccc3c(=O)n2-c2ccc(C(=O)NN3C(=O)/C(=C/c4ccc(O)cc4)SC3c3ccc(O)cc3)cc2)cc1 (stereo unspecified) | 50 µg/mL (≈ 76.6 µM) |
| Cc1ccc(-c2nc3ccccc3c(=O)n2-c2ccc(C(=O)NN3C(=O)/C(=C/c4cccc([N+](=O)[O-])c4)SC3c3ccc(O)cc3)cc2)cc1 (stereo unspecified) | 500 µg/mL (≈ 733 µM) |
| Cc1ccc(-c2nc3ccccc3c(=O)n2-c2ccc(C(=O)NN3C(=O)/C(=C/c4ccccc4Cl)SC3c3ccc(O)cc3)cc2)cc1 (stereo unspecified) | 100 µg/mL (≈ 149 µM) |

system: Staphylococcus aureus; assay: Antibacterial activity against Staphylococcus aureus MTCC-96 after 24 hr by serial broth dilution method; assay type: functional; conditions: MTCC-96, 24 h

| SMILES | MIC99 |
| --- | --- |
| Cc1ccc(-c2nc3ccccc3c(=O)n2-c2ccc(C(=O)NN3C(=O)/C(=C/c4cc(Br)ccc4O)SC3c3ccc(O)cc3)cc2)cc1 (stereo unspecified) | 250 µg/mL (≈ 342 µM) |
| Cc1ccc(-c2nc3ccccc3c(=O)n2-c2ccc(C(=O)NN3C(=O)/C(=C/c4c(Cl)cccc4Cl)SC3c3ccc(O)cc3)cc2)cc1 (stereo unspecified) | 100 µg/mL (≈ 142 µM) |
| Cc1ccc(-c2nc3ccccc3c(=O)n2-c2ccc(C(=O)NN3C(=O)/C(=C/c4ccc(Cl)cc4)SC3c3ccc(O)cc3)cc2)cc1 (stereo unspecified) | 500 µg/mL (≈ 745 µM) |
| Cc1ccc(-c2nc3ccccc3c(=O)n2-c2ccc(C(=O)NN3C(=O)/C(=C/c4ccc5ccccc5c4O)SC3c3ccc(O)cc3)cc2)cc1 (stereo unspecified) | 100 µg/mL (≈ 142 µM) |
| Cc1ccc(-c2nc3ccccc3c(=O)n2-c2ccc(C(=O)NN3C(=O)/C(=C/c4ccc(F)cc4)SC3c3ccc(O)cc3)cc2)cc1 (stereo unspecified) | 100 µg/mL (≈ 153 µM) |
| Cc1ccc(-c2nc3ccccc3c(=O)n2-c2ccc(C(=O)NN3C(=O)/C(=C/c4ccc(O)cc4)SC3c3ccc(O)cc3)cc2)cc1 (stereo unspecified) | 100 µg/mL (≈ 153 µM) |
| Cc1ccc(-c2nc3ccccc3c(=O)n2-c2ccc(C(=O)NN3C(=O)/C(=C/c4cccc([N+](=O)[O-])c4)SC3c3ccc(O)cc3)cc2)cc1 (stereo unspecified) | 50 µg/mL (≈ 73.3 µM) |
| Cc1ccc(-c2nc3ccccc3c(=O)n2-c2ccc(C(=O)NN3C(=O)/C(=C/c4ccccc4Cl)SC3c3ccc(O)cc3)cc2)cc1 (stereo unspecified) | 500 µg/mL (≈ 745 µM) |

system: Escherichia coli; assay: Antibacterial activity against Escherichia coli MTCC 443 after 24 hr by serial broth dilution method; assay type: functional; conditions: MTCC 443, 24 h

| SMILES | MIC99 |
| --- | --- |
| Cc1ccc(-c2nc3ccccc3c(=O)n2-c2ccc(C(=O)NN3C(=O)/C(=C/c4cc(Br)ccc4O)SC3c3ccc(O)cc3)cc2)cc1 (stereo unspecified) | 500 µg/mL (≈ 683 µM) |
| Cc1ccc(-c2nc3ccccc3c(=O)n2-c2ccc(C(=O)NN3C(=O)/C(=C/c4c(Cl)cccc4Cl)SC3c3ccc(O)cc3)cc2)cc1 (stereo unspecified) | 50 µg/mL (≈ 70.9 µM) |
| Cc1ccc(-c2nc3ccccc3c(=O)n2-c2ccc(C(=O)NN3C(=O)/C(=C/c4ccc(Cl)cc4)SC3c3ccc(O)cc3)cc2)cc1 (stereo unspecified) | 50 µg/mL (≈ 74.5 µM) |
| Cc1ccc(-c2nc3ccccc3c(=O)n2-c2ccc(C(=O)NN3C(=O)/C(=C/c4ccc5ccccc5c4O)SC3c3ccc(O)cc3)cc2)cc1 (stereo unspecified) | 100 µg/mL (≈ 142 µM) |
| Cc1ccc(-c2nc3ccccc3c(=O)n2-c2ccc(C(=O)NN3C(=O)/C(=C/c4ccc(F)cc4)SC3c3ccc(O)cc3)cc2)cc1 (stereo unspecified) | 500 µg/mL (≈ 764 µM) |
| Cc1ccc(-c2nc3ccccc3c(=O)n2-c2ccc(C(=O)NN3C(=O)/C(=C/c4ccc(O)cc4)SC3c3ccc(O)cc3)cc2)cc1 (stereo unspecified) | 100 µg/mL (≈ 153 µM) |
| Cc1ccc(-c2nc3ccccc3c(=O)n2-c2ccc(C(=O)NN3C(=O)/C(=C/c4cccc([N+](=O)[O-])c4)SC3c3ccc(O)cc3)cc2)cc1 (stereo unspecified) | 25 µg/mL (≈ 36.7 µM) |
| Cc1ccc(-c2nc3ccccc3c(=O)n2-c2ccc(C(=O)NN3C(=O)/C(=C/c4ccccc4Cl)SC3c3ccc(O)cc3)cc2)cc1 (stereo unspecified) | 200 µg/mL (≈ 298 µM) |

system: Pseudomonas aeruginosa; assay: Antibacterial activity against Pseudomonas aeruginosa MTCC-1688 after 24 hr by serial broth dilution method; assay type: functional; conditions: MTCC-1688, 24 h

| SMILES | MIC99 |
| --- | --- |
| Cc1ccc(-c2nc3ccccc3c(=O)n2-c2ccc(C(=O)NN3C(=O)/C(=C/c4cc(Br)ccc4O)SC3c3ccc(O)cc3)cc2)cc1 (stereo unspecified) | 500 µg/mL (≈ 683 µM) |
| Cc1ccc(-c2nc3ccccc3c(=O)n2-c2ccc(C(=O)NN3C(=O)/C(=C/c4c(Cl)cccc4Cl)SC3c3ccc(O)cc3)cc2)cc1 (stereo unspecified) | 200 µg/mL (≈ 283 µM) |
| Cc1ccc(-c2nc3ccccc3c(=O)n2-c2ccc(C(=O)NN3C(=O)/C(=C/c4ccc(Cl)cc4)SC3c3ccc(O)cc3)cc2)cc1 (stereo unspecified) | 100 µg/mL (≈ 149 µM) |
| Cc1ccc(-c2nc3ccccc3c(=O)n2-c2ccc(C(=O)NN3C(=O)/C(=C/c4ccc5ccccc5c4O)SC3c3ccc(O)cc3)cc2)cc1 (stereo unspecified) | 50 µg/mL (≈ 71.1 µM) |
| Cc1ccc(-c2nc3ccccc3c(=O)n2-c2ccc(C(=O)NN3C(=O)/C(=C/c4ccc(F)cc4)SC3c3ccc(O)cc3)cc2)cc1 (stereo unspecified) | 50 µg/mL (≈ 76.4 µM) |
| Cc1ccc(-c2nc3ccccc3c(=O)n2-c2ccc(C(=O)NN3C(=O)/C(=C/c4ccc(O)cc4)SC3c3ccc(O)cc3)cc2)cc1 (stereo unspecified) | 500 µg/mL (≈ 766 µM) |
| Cc1ccc(-c2nc3ccccc3c(=O)n2-c2ccc(C(=O)NN3C(=O)/C(=C/c4cccc([N+](=O)[O-])c4)SC3c3ccc(O)cc3)cc2)cc1 (stereo unspecified) | 100 µg/mL (≈ 147 µM) |
| Cc1ccc(-c2nc3ccccc3c(=O)n2-c2ccc(C(=O)NN3C(=O)/C(=C/c4ccccc4Cl)SC3c3ccc(O)cc3)cc2)cc1 (stereo unspecified) | 500 µg/mL (≈ 745 µM) |

system: Aspergillus clavatus; assay: Antifungal activity against Aspergillus clavatus MTCC 1323 after 48 hr by spot subculture method; assay type: functional; conditions: MTCC 1323, 48 h

| SMILES | MIC99 |
| --- | --- |
| Cc1ccc(-c2nc3ccccc3c(=O)n2-c2ccc(C(=O)NN3C(=O)/C(=C/c4cc(Br)ccc4O)SC3c3ccc(O)cc3)cc2)cc1 (stereo unspecified) | 100 µg/mL (≈ 137 µM) |
| Cc1ccc(-c2nc3ccccc3c(=O)n2-c2ccc(C(=O)NN3C(=O)/C(=C/c4c(Cl)cccc4Cl)SC3c3ccc(O)cc3)cc2)cc1 (stereo unspecified) | 1000 µg/mL (≈ 1420 µM) |
| Cc1ccc(-c2nc3ccccc3c(=O)n2-c2ccc(C(=O)NN3C(=O)/C(=C/c4ccc(Cl)cc4)SC3c3ccc(O)cc3)cc2)cc1 (stereo unspecified) | 1000 µg/mL (≈ 1490 µM) |
| Cc1ccc(-c2nc3ccccc3c(=O)n2-c2ccc(C(=O)NN3C(=O)/C(=C/c4ccc5ccccc5c4O)SC3c3ccc(O)cc3)cc2)cc1 (stereo unspecified) | 100 µg/mL (≈ 142 µM) |
| Cc1ccc(-c2nc3ccccc3c(=O)n2-c2ccc(C(=O)NN3C(=O)/C(=C/c4ccc(F)cc4)SC3c3ccc(O)cc3)cc2)cc1 (stereo unspecified) | 1000 µg/mL (≈ 1530 µM) |
| Cc1ccc(-c2nc3ccccc3c(=O)n2-c2ccc(C(=O)NN3C(=O)/C(=C/c4ccc(O)cc4)SC3c3ccc(O)cc3)cc2)cc1 (stereo unspecified) | 100 µg/mL (≈ 153 µM) |
| Cc1ccc(-c2nc3ccccc3c(=O)n2-c2ccc(C(=O)NN3C(=O)/C(=C/c4cccc([N+](=O)[O-])c4)SC3c3ccc(O)cc3)cc2)cc1 (stereo unspecified) | 500 µg/mL (≈ 733 µM) |
| Cc1ccc(-c2nc3ccccc3c(=O)n2-c2ccc(C(=O)NN3C(=O)/C(=C/c4ccccc4Cl)SC3c3ccc(O)cc3)cc2)cc1 (stereo unspecified) | 1000 µg/mL (≈ 1490 µM) |

system: Aspergillus niger; assay: Antifungal activity against Aspergillus niger MTCC 282 after 48 hr by spot subculture method; assay type: functional; conditions: MTCC 282, 48 h

| SMILES | MIC99 |
| --- | --- |
| Cc1ccc(-c2nc3ccccc3c(=O)n2-c2ccc(C(=O)NN3C(=O)/C(=C/c4cc(Br)ccc4O)SC3c3ccc(O)cc3)cc2)cc1 (stereo unspecified) | 1000 µg/mL (≈ 1370 µM) |
| Cc1ccc(-c2nc3ccccc3c(=O)n2-c2ccc(C(=O)NN3C(=O)/C(=C/c4c(Cl)cccc4Cl)SC3c3ccc(O)cc3)cc2)cc1 (stereo unspecified) | 100 µg/mL (≈ 142 µM) |
| Cc1ccc(-c2nc3ccccc3c(=O)n2-c2ccc(C(=O)NN3C(=O)/C(=C/c4ccc(Cl)cc4)SC3c3ccc(O)cc3)cc2)cc1 (stereo unspecified) | 1000 µg/mL (≈ 1490 µM) |
| Cc1ccc(-c2nc3ccccc3c(=O)n2-c2ccc(C(=O)NN3C(=O)/C(=C/c4ccc5ccccc5c4O)SC3c3ccc(O)cc3)cc2)cc1 (stereo unspecified) | 1000 µg/mL (≈ 1420 µM) |
| Cc1ccc(-c2nc3ccccc3c(=O)n2-c2ccc(C(=O)NN3C(=O)/C(=C/c4ccc(F)cc4)SC3c3ccc(O)cc3)cc2)cc1 (stereo unspecified) | 500 µg/mL (≈ 764 µM) |
| Cc1ccc(-c2nc3ccccc3c(=O)n2-c2ccc(C(=O)NN3C(=O)/C(=C/c4ccc(O)cc4)SC3c3ccc(O)cc3)cc2)cc1 (stereo unspecified) | 1000 µg/mL (≈ 1530 µM) |
| Cc1ccc(-c2nc3ccccc3c(=O)n2-c2ccc(C(=O)NN3C(=O)/C(=C/c4cccc([N+](=O)[O-])c4)SC3c3ccc(O)cc3)cc2)cc1 (stereo unspecified) | 100 µg/mL (≈ 147 µM) |
| Cc1ccc(-c2nc3ccccc3c(=O)n2-c2ccc(C(=O)NN3C(=O)/C(=C/c4ccccc4Cl)SC3c3ccc(O)cc3)cc2)cc1 (stereo unspecified) | 1000 µg/mL (≈ 1490 µM) |

system: Candida albicans; assay: Antifungal activity against Candida albicans MTCC 227 after 48 hr by spot subculture method; assay type: functional; conditions: MTCC 227, 48 h

| SMILES | MIC99 |
| --- | --- |
| Cc1ccc(-c2nc3ccccc3c(=O)n2-c2ccc(C(=O)NN3C(=O)/C(=C/c4cc(Br)ccc4O)SC3c3ccc(O)cc3)cc2)cc1 (stereo unspecified) | 500 µg/mL (≈ 683 µM) |
| Cc1ccc(-c2nc3ccccc3c(=O)n2-c2ccc(C(=O)NN3C(=O)/C(=C/c4c(Cl)cccc4Cl)SC3c3ccc(O)cc3)cc2)cc1 (stereo unspecified) | 500 µg/mL (≈ 709 µM) |
| Cc1ccc(-c2nc3ccccc3c(=O)n2-c2ccc(C(=O)NN3C(=O)/C(=C/c4ccc(Cl)cc4)SC3c3ccc(O)cc3)cc2)cc1 (stereo unspecified) | 100 µg/mL (≈ 149 µM) |
| Cc1ccc(-c2nc3ccccc3c(=O)n2-c2ccc(C(=O)NN3C(=O)/C(=C/c4ccc5ccccc5c4O)SC3c3ccc(O)cc3)cc2)cc1 (stereo unspecified) | 100 µg/mL (≈ 142 µM) |
| Cc1ccc(-c2nc3ccccc3c(=O)n2-c2ccc(C(=O)NN3C(=O)/C(=C/c4ccc(F)cc4)SC3c3ccc(O)cc3)cc2)cc1 (stereo unspecified) | 100 µg/mL (≈ 153 µM) |
| Cc1ccc(-c2nc3ccccc3c(=O)n2-c2ccc(C(=O)NN3C(=O)/C(=C/c4ccc(O)cc4)SC3c3ccc(O)cc3)cc2)cc1 (stereo unspecified) | 1000 µg/mL (≈ 1530 µM) |
| Cc1ccc(-c2nc3ccccc3c(=O)n2-c2ccc(C(=O)NN3C(=O)/C(=C/c4cccc([N+](=O)[O-])c4)SC3c3ccc(O)cc3)cc2)cc1 (stereo unspecified) | 100 µg/mL (≈ 147 µM) |
| Cc1ccc(-c2nc3ccccc3c(=O)n2-c2ccc(C(=O)NN3C(=O)/C(=C/c4ccccc4Cl)SC3c3ccc(O)cc3)cc2)cc1 (stereo unspecified) | 1000 µg/mL (≈ 1490 µM) |
